In data set [1] the target is T1, recombinant human GST-SYK (Homo sapiens, UniProt P43405).
T1 construct: purchased Carna Biosciences 08-176
Kind of data set: Homogeneous Time-Resolved Fluorescence (HTRF) Assay for the Recombinant Human Syk Enzyme. The format is biochemical. As to conditions: GST-hSYK 5 pM, ATP 25 μM, 10-dose titration. How it is done:
Homogeneous Time-Resolved Fluorescence (HTRF) Assay for the Recombinant Human Syk Enzyme
A recombinant GST-hSYK fusion protein was used to measure potency of compounds to inhibit human Syk activity. […] Final volume of the reaction was 10 μL. Phosphorylation of the peptide was allowed to proceed for 45′ at room temperature. To quench the reaction and detect the phosphorylated product, 2 nM of a Europium-anti-phosphotyrosine antibody (Perkin Elmer #AD0161) and 70 nM SA-APC (Perkin-Elmer #CR130-100) were added together in 15 mM Tris pH 7.5, 40 mM EDTA, 0.01% tween 20. Final volume of the quenching solution was 10 μl. The resulting HTRF signal was measured after 30 minutes on an EnVision (Perkin-Elmer) reader using a time-resolved fluorescence protocol.
In general terms: TR-FRET usually uses a lanthanide donor and a delayed reading to cut background.

In data set [2] the test system is PGD2. As to conditions: intranasal, phase I/II study, allergic rhinitis; cited from earlier work.
For data set [3] the following is noted: phase II clinical trial, allergic rhinitis; cited from earlier work.

Molecules are shown by their SMILES. Where two headings read alike, the source gives them in different places.

Turning to `NC(=O)c1ccc(N[C@@H]2CCCC[C@@H]2N)cc1Nc1cccc(-c2ccc(F)cc2)n1` (relative stereo) [Example 1.14, rel-4-{[(1R,2S)-2-aminocyclohexyl]amino}-2-{[6-(4-fluorophenyl)pyridin-2-yl]amino}benzamide], the IC50 in data set [1] (read-out: rhSYK Activity) lay within 1.5 to 15 nM.
With `NC(=O)c1ccc(N[C@@H]2CCCC[C@@H]2N)cc1Nc1cccc(-n2cccn2)n1` (relative stereo) [Example 1.3, rel-4-{[(1R,2S)-2-aminocyclohexyl]amino}-2-{[6-(1H-pyrazol-1-yl)pyridin-2-yl]amino}benzamide], in data set [1] (read-out: rhSYK Activity), the IC50 was in the range of 1.5 to 15 nM.
Same read-out and setting: as for `NC(=O)c1ccc(N[C@@H]2CCCC[C@@H]2N)cc1Nc1cccc(N2CCOCC2)n1` (relative stereo) [Example 1.5, rel-4-{[(1R,2S)-2-aminocyclohexyl]amino}-2-[(6-morpholin-4-ylpyridin-2-yl)amino]benzamide], the figure is 15 to 50 nM.
In the case of `Oc1cccc(Nc2ncc(F)c(Nc3cccc(O)c3)n2)c1` [Example R112], in data set [2], the “change in PGD2” value is “statistically significant decrease” and the clinical safety entry is given as “safe across a range of indicators”. Further, in data set [3], the efficacy versus placebo entry is “lack of efficacy versus placebo”.
Regarding `Cc1cccc(Nc2cc(N[C@@H]3CCCC[C@@H]3N)ccc2C(N)=O)n1` (relative stereo) [Example 2, rel-4-{[(1R,2S)-2-aminocyclohexyl]amino}-2-[(6-methylpyridin-2-yl)amino]benzamide], the IC50 in data set [1] (read-out: rhSYK Activity) was 15 to 50 nM.
Same read-out and setting: as for `COc1ccc(-c2cccc(Nc3cc(N[C@@H]4CCCC[C@@H]4N)ccc3C(N)=O)n2)cc1` (relative stereo) [Example 1.13, rel-4-{[(1R,2S)-2-aminocyclohexyl]amino}-2-{[6-(4-methoxyphenyl)pyridin-2-yl]amino}benzamide], the figure is under 1.5 nM; as for `NC(=O)c1ccc(N[C@@H]2CCCC[C@@H]2N)cc1Nc1cccc(-c2cccc(F)c2)n1` (relative stereo) [Example 1.11, rel-4-{[(1R,2S)-2-aminocyclohexyl]amino}-2-{[6-(3-fluorophenyl)pyridin-2-yl]amino}benzamide], under 1.5 nM; as for `NC(=O)c1ccc(N[C@@H]2CCCC[C@@H]2N)cc1Nc1cccc(-c2ccccc2)n1` (relative stereo) [Example 1.7, rel-4-{[(1R,2S)-2-aminocyclohexyl]amino}-2-[(6-phenylpyridin-2-yl)amino]benzamide], under 1.5 nM.
The same measure, in the same setting: the figure for `CCOc1cccc(Nc2cc(N[C@@H]3CCCC[C@@H]3N)ccc2C(N)=O)n1` (relative stereo) [Example 1.6, rel-4-{[(1R,2S)-2-aminocyclohexyl]amino}-2-[(6-ethoxypyridin-2-yl)amino]benzamide] is 1.5 to 15 nM.
As to `Cc1nc(Nc2cc(N[C@@H]3CCCC[C@@H]3N)ccc2C(N)=O)ccc1F` (relative stereo) [Example 1.4, rel-4-{[(1R,2S)-2-aminocyclohexyl]amino}-2-[(5-fluoro-6-methylpyridin-2-yl)amino]benzamide], the IC50 in data set [1] (read-out: IC50) is 23 nM; in data set [1] (read-out: rhSYK Activity), 15 to 50 nM.
On to `NC(=O)c1ccc(N[C@@H]2CCCC[C@@H]2N)cc1Nc1ccc2ccccc2n1` (relative stereo) [Example 1.15, rel-4-{[(1R,2S)-2-aminocyclohexyl]amino}-2-(quinolin-2-ylamino)benzamide], for which, in data set [1] (read-out: rhSYK Activity), the IC50 was 1.5 to 15 nM.
The same measure, in the same setting: the figure for `NC(=O)c1ccc(N[C@@H]2CCCC[C@@H]2N)cc1Nc1cccc(-c2ccncc2)n1` (relative stereo) [Example 1.8, rel-4-{[(1R,2S)-2-aminocyclohexyl]amino}-2-(2,4′-bipyridin-6-ylamino)benzamide] is under 1.5 nM; for `COc1ccccc1-c1cccc(Nc2cc(N[C@@H]3CCCC[C@@H]3N)ccc2C(N)=O)n1` (relative stereo) [Example 1.12, rel-4-{[(1R,2S)-2-aminocyclohexyl]amino}-2-{[6-(2-methoxyphenyl)pyridin-2-yl]amino}benzamide] it is under 1.5 nM.
In the case of `COc1cccc(-c2cccc(Nc3cc(N[C@@H]4CCCC[C@@H]4N)ccc3C(N)=O)n2)c1` (relative stereo) [Example 1.9, rel-4-{[(1R,2S)-2-aminocyclohexyl]amino}-2-{[6-(3-methoxyphenyl)pyridin-2-yl]amino}benzamide], the results for the IC50 in data set [1] (read-out: IC50) and in data set [1] (read-out: rhSYK Activity) were 1.3 nM and under 1.5 nM, respectively.
With `COc1cccc(Nc2cc(N[C@@H]3CCCC[C@@H]3N)ccc2C(N)=O)n1` (relative stereo) [Example 1.2, rel-4-{[(1R,2S)-2-aminocyclohexyl]amino}-2-[(6-methoxypyridin-2-yl)amino]benzamide], the IC50 in data set [1] (read-out: rhSYK Activity) lay within 1.5 to 15 nM.
Still for that read-out and setting: as for `NC(=O)c1ccc(N[C@@H]2CCCC[C@@H]2N)cc1Nc1cccc(-n2cccc2)n1` (relative stereo) [Example 1.17, rel-4-{[(1R,2S)-2-aminocyclohexyl]amino}-2-{[6-(1H-pyrrol-1-yl)pyridin-2-yl]amino}benzamide], the figure is under 1.5 nM.
Turning to `Cn1cc(-c2cccc(Nc3cc(N[C@@H]4CCCC[C@@H]4N)ccc3C(N)=O)n2)cn1` (relative stereo) [Example 1.10, rel-4-{[(1R,2S)-2-aminocyclohexyl]amino}-2-{[6-(1-methyl-1H-pyrazol-4-yl)pyridin-2-yl]amino}benzamide], the figures for the IC50 in data set [1] (read-out: IC50) and in data set [1] (read-out: rhSYK Activity) were 2 nM and 1.5 to 15 nM, respectively.
For `NC(=O)c1ccc(N[C@@H]2CCCC[C@@H]2N)cc1Nc1cccc(-c2ccc(F)c(F)c2)n1` (relative stereo) [Example 1.16, rel-4-{[(1R,2S)-2-aminocyclohexyl]amino}-2-{[6-(3,4-difluorophenyl)pyridin-2-yl]amino}benzamide], in that order: 1.6 nM and 1.5 to 15 nM.

These data come from US9006444B2, “Phenyl carboxamide-containing spleen tyrosine kinase (SYK) inhibitors” (Merck Sharp & Dohme Corp., priority 2011, dated 2015).
